IC50 and inhibition data for 31 compounds are collected here from patent US7612211B2, “Benzimidazole TRPV1 inhibitors” (Janssen Pharmaceutica N.V., priority 2006, dated 2009).

For this experiment, the target named is T1, hTRPV1 (Homo sapiens, UniProt Q8NER1).
T1 construct: expressed in transfected cells; host or cells: HEK293
The experiment can be described thus: Human TRPV1 (hTRPV1) functional assay, FLIPR intracellular Ca2+, capsaicin challenge. The class given is cell-based. Conditions: HEK293 cells expressing hTRPV1, capsaicin 0.030 μM challenge; for IC50: derived from a variety of test concentrations, read-out: IC50 value (symbol c); for inhibition at 0.5 µM: test concentration of 0.5 μm, read-out: percent inhibition (symbol a); for inhibition at 0.2 µM: test concentration of 0.2 μm, read-out: percent inhibition (symbol b). The method, boiled down: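 HEK293 cells expressing the channel, loaded with Calcium 3 dye, were exposed to compounds for 5 min before capsaicin 0.030 μM (~80% maximal). FLIPR Ca2+ read; IC50/EC50 from quadruplicate concentration-response, or percent inhibition at 0.5 μm or 0.2 μm.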

T1 sequence (Q8NER1 whole entry): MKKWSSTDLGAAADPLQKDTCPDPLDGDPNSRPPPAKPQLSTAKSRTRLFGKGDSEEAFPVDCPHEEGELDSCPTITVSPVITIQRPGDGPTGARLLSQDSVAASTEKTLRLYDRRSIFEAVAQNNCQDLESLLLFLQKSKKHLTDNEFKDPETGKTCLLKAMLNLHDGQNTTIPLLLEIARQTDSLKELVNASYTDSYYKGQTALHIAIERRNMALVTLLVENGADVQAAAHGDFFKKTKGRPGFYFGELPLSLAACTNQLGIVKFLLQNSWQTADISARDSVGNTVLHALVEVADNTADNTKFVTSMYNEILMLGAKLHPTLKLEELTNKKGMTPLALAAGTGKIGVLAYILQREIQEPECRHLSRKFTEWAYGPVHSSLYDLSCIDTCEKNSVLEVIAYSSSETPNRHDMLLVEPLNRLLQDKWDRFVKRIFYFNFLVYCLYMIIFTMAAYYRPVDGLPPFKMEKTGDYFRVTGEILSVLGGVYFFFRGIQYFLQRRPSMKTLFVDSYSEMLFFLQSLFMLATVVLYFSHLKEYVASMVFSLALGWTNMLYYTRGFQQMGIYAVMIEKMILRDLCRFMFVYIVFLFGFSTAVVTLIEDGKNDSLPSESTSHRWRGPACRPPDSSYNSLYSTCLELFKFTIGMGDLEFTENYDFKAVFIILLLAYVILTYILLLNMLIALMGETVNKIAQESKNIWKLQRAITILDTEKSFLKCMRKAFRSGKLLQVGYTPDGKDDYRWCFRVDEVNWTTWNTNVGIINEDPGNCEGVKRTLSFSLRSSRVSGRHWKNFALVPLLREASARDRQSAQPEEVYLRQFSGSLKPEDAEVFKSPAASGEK

Take `NS(=O)(=O)c1c(F)cc(F)cc1-c1ccc2[nH]c(COc3ccc(C(F)(F)F)cc3)nc2c1` [Cpd 135, 2,4-difluoro-6-[2-(4-trifluoromethyl-phenoxymethyl)-1H-benzoimidazol-5-yl]-benzenesulfonamide]: the IC50 came to 47 nM and the inhibition at 0.5 µM was 100%. For `NS(=O)(=O)c1ccccc1-c1ccc2[nH]c(NCc3ccc(C(F)(F)F)cc3)nc2c1` [Cpd 136, 2-[2-(4-trifluoromethyl-benzylamino)-1H-benzoimidazol-5-yl]-benzenesulfonamide], in that order: 68 nM and 99%. In the case of `CN(Cc1ccc(C(F)(F)F)cc1)c1nc2cc(-c3ccccc3S(N)(=O)=O)ccc2[nH]1` [Cpd 137, 2-{2-[methyl-(4-trifluoromethyl-benzyl)-amino]-1H-benzoimidazol-5-yl}-benzenesulfonamide], the inhibition at 0.5 µM is 37%. Turning to `NS(=O)(=O)c1ccccc1-c1ccc2[nH]c(OCc3ccc(C(F)(F)F)cc3)nc2c1` [Cpd 138, 2-[2-(4-trifluoromethyl-benzyloxy)-1H-benzoimidazol-5-yl]-benzenesulfonamide], the inhibition at 0.5 µM was 18%.

For the compound `NS(=O)(=O)c1ccccc1-c1ccc2[nH]c(C(F)(F)Oc3ccc(C(F)(F)F)cc3)nc2c1` [Cpd 139, 2-{2-[difluoro-(4-trifluoromethyl-phenoxy)-methyl]-1H-benzoimidazol-5-yl}-benzenesulfonamide], the IC50 came to 21 nM and the inhibition at 0.5 µM stood at 99%.

For `CNS(=O)(=O)c1ccccc1-c1ccc2[nH]c(C(F)(F)Oc3ccc(C(F)(F)F)cc3)nc2c1` [Cpd 140, 2-{2-[difluoro-(4-trifluoromethyl-phenoxy)-methyl]-1H-benzoimidazol-5-yl}-N-methyl-benzenesulfonamide], the IC50 is 17 nM and the inhibition at 0.5 µM is 101%. As for `CN(C)S(=O)(=O)c1ccccc1-c1ccc2[nH]c(C(F)(F)Oc3ccc(C(F)(F)F)cc3)nc2c1` [Cpd 141, 2-{2-[difluoro-(4-trifluoromethyl-phenoxy)-methyl]-1H-benzoimidazol-5-yl}-N,N-dimethyl-benzenesulfonamide], the IC50 came out at 83 nM and the inhibition at 0.5 µM was found to be 99%.

Take `O=S(=O)(CCO)c1ccccc1-c1ccc2[nH]c(COc3ccc(C(F)(F)F)cc3)nc2c1` [Cpd 142, 2-{2-[2-(4-trifluoromethyl-phenoxymethyl)-1H-benzoimidazol-5-yl]-benzenesulfonyl}-ethanol]: the IC50 was 8 nM and the inhibition at 0.2 µM was found to be 97%.

In the case of `CC(O)c1ccccc1-c1ccc2[nH]c(COc3ccc(C(F)(F)F)cc3)nc2c1` (stereo not drawn) [Cpd 143, 1-{2-[2-(4-trifluoromethyl-phenoxymethyl)-1H-benzoimidazol-5-yl]-phenyl}-ethanol], the 50% inhibitory concentration (IC50) is 13 nM. `CC(C)C(O)c1ccccc1-c1ccc2[nH]c(COc3ccc(C(F)(F)F)cc3)nc2c1` (stereo not drawn) [Cpd 144, 2-methyl-1-{2-[2-(4-trifluoromethyl-phenoxymethyl)-1H-benzoimidazol-5-yl]-phenyl}-propan-1-ol]: the IC50 worked out at 114 nM and the inhibition at 0.2 µM was determined as 82%. Regarding `CC(C)(C)C(O)c1ccccc1-c1ccc2[nH]c(COc3ccc(C(F)(F)F)cc3)nc2c1` (stereo not drawn) [Cpd 145, 2,2-dimethyl-1-{2-[2-(4-trifluoromethyl-phenoxymethyl)-1H-benzoimidazol-5-yl]-phenyl}-propan-1-ol], the inhibition at 0.2 µM is 12%. For `CC(O)C(=O)c1ccccc1-c1ccc2[nH]c(COc3ccc(C(F)(F)F)cc3)nc2c1` (stereo not drawn) [Cpd 146, 2-hydroxy-1-{2-[2-(4-trifluoromethyl-phenoxymethyl)-1H-benzoimidazol-5-yl]-phenyl}-propan-1-one], the inhibition at 0.2 µM stood at 72%. With `CC(C)(O)C(=O)c1ccccc1-c1ccc2[nH]c(COc3ccc(C(F)(F)F)cc3)nc2c1` [Cpd 147, 2-hydroxy-2-methyl-1-{2-[2-(4-trifluoromethyl-phenoxymethyl)-1H-benzoimidazol-5-yl]-phenyl}-propan-1-one], the IC50 worked out at 7 nM and the inhibition at 0.2 µM was 98%. As to `CN(C)C(=O)C(O)c1ccccc1-c1ccc2[nH]c(COc3ccc(C(F)(F)F)cc3)nc2c1` (stereo not drawn) [Cpd 148, N,N-dimethyl-2-hydroxy-2-{2-[2-(4-trifluoromethyl-phenoxymethyl)-1H-benzoimidazol-5-yl]-phenyl}-acetamide], the IC50 came to 58 nM and the inhibition at 0.2 µM was determined as 89%.

As to `CON(C)C(=O)C(O)c1ccccc1-c1ccc2[nH]c(COc3ccc(C(F)(F)F)cc3)nc2c1` (stereo not drawn) [Cpd 149, 2-hydroxy-N-methoxy-N-methyl-2-{2-[2-(4-trifluoromethyl-phenoxymethyl)-1H-benzoimidazol-5-yl]-phenyl}-acetamide], the IC50 worked out at 46 nM and the inhibition at 0.2 µM stood at 89%. For the compound `OCC(O)c1ccccc1-c1ccc2[nH]c(COc3ccc(C(F)(F)F)cc3)nc2c1` (stereo not drawn) [Cpd 150, 1-{2-[2-(4-trifluoromethyl-phenoxymethyl)-1H-benzoimidazol-5-yl]-phenyl}-ethane-1,2-diol], the IC50 is 16 nM and the inhibition at 0.2 µM is 99%. `O=C(CO)c1ccccc1-c1ccc2[nH]c(COc3ccc(C(F)(F)F)cc3)nc2c1` [Cpd 151, 2-hydroxy-1-{2-[2-(4-trifluoromethyl-phenoxymethyl)-1H-benzoimidazol-5-yl]-phenyl}-ethanone]: the inhibition at 0.2 µM amounted to 33%. Take `O=C(NCCO)c1ccccc1-c1ccc2[nH]c(COc3ccc(C(F)(F)F)cc3)nc2c1` [Cpd 152, N-(2-hydroxy-ethyl)-2-[2-(4-trifluoromethyl-phenoxymethyl)-1H-benzoimidazol-5-yl]-benzamide]: the inhibition at 0.2 µM came out at 38%.

With `CC(C)(O)CNC(=O)c1ccccc1-c1ccc2[nH]c(COc3ccc(C(F)(F)F)cc3)nc2c1` [Cpd 153, N-(2-hydroxy-2-methyl-propyl)-2-[2-(4-trifluoromethyl-phenoxymethyl)-1H-benzoimidazol-5-yl]-benzamide], the inhibition at 0.2 µM was 31%. `CC(O)CNC(=O)c1ccccc1-c1ccc2[nH]c(COc3ccc(C(F)(F)F)cc3)nc2c1` (stereo not drawn) [Cpd 154, N-(2-hydroxy-propyl)-2-[2-(4-trifluoromethyl-phenoxymethyl)-1H-benzoimidazol-5-yl]-benzamide]: the inhibition at 0.2 µM was determined as 68%. Consider `CN(CCO)C(=O)c1ccccc1-c1ccc2[nH]c(COc3ccc(C(F)(F)F)cc3)nc2c1` [Cpd 155, N-(2-hydroxy-ethyl)-N-methyl-2-[2-(4-trifluoromethyl-phenoxymethyl)-1H-benzoimidazol-5-yl]-benzamide], for which the inhibition at 0.2 µM is 21%. On to `CC(Oc1ccc(C(F)(F)F)cc1)c1nc2cc(-c3ccccc3S(N)(=O)=O)ccc2[nH]1` (stereo not drawn) [Cpd 156, 2-{2-[1-(4-trifluoromethyl-phenoxy)-ethyl]-1H-benzoimidazol-5-yl}-benzenesulfonamide], for which the IC50 was determined as 78 nM and the inhibition at 0.2 µM is 76%.

For the compound `CCC(Oc1ccc(C(F)(F)F)cc1)c1nc2cc(-c3ccccc3S(N)(=O)=O)ccc2[nH]1` (stereo not drawn) [Cpd 157, 2-{2-[1-(4-trifluoromethyl-phenoxy)-propyl]-1H-benzoimidazol-5-yl}-benzenesulfonamide], the inhibition at 0.2 µM worked out at 20%. For the compound `O=S(=O)(c1ccccc1-c1ccc2[nH]c(COc3ccc(C(F)(F)F)cc3)nc2c1)C(F)(F)F` [Cpd 158, 5-(2-trifluoromethanesulfonyl-phenyl)-2-(4-trifluoromethyl-phenoxymethyl)-1H-benzoimidazole], the inhibition at 0.2 µM was determined as 13%. Regarding `CC(C)(O)CS(=O)(=O)c1ccccc1-c1ccc2[nH]c(COc3ccc(C(F)(F)F)cc3)nc2c1` [Cpd 159, 2-methyl-1-{2-[2-(4-trifluoromethyl-phenoxymethyl)-1H-benzoimidazol-5-yl]-benzenesulfonyl}-propan-2-ol], the IC50 stood at 22 nM and the inhibition at 0.2 µM was found to be 90%. For `CC(O)CS(=O)(=O)c1ccccc1-c1ccc2[nH]c(COc3ccc(C(F)(F)F)cc3)nc2c1` (stereo not drawn) [Cpd 160, 1-{2-[2-(4-trifluoromethyl-phenoxymethyl)-1H-benzoimidazol-5-yl]-benzenesulfonyl}-propan-2-ol] the same measures were 12.5 nM and 90%. With `O=S(=O)(CCO)c1ccccc1-c1ccc2[nH]c(COc3ccc(S(=O)(=O)C(F)(F)F)cc3)nc2c1` [Cpd 161, 2-{2-[2-(4-trifluoromethanesulfonyl-phenoxymethyl)-1H-benzoimidazol-5-yl]-benzenesulfonyl}-ethanol], the inhibition at 0.2 µM came out at 63%.

With `CS(=O)(=O)c1ccc(OCc2nc3cc(-c4ccccc4S(=O)(=O)CCO)ccc3[nH]2)cc1` [Cpd 162, 2-{2-[2-(4-methanesulfonyl-phenoxymethyl)-1H-benzoimidazol-5-yl]-benzenesulfonyl}-ethanol], the inhibition at 0.2 µM is 4%. As to `CC(C)(O)c1ccccc1-c1ccc2[nH]c(COc3ccc(C4CC4)cc3)nc2c1` [Cpd 163, 2-{2-[2-(4-cyclopropyl-phenoxymethyl)-1H-benzoimidazol-5-yl]-phenyl}-propan-2-ol], the IC50 was determined as 3 nM and the inhibition at 0.2 µM is 98%. On to `NS(=O)(=O)c1ccccc1-c1ccc2[nH]c(COc3ccc(C4CC4)cc3)nc2c1` [Cpd 164, 2-[2-(4-cyclopropyl-phenoxymethyl)-1H-benzoimidazol-5-yl]-benzenesulfonamide], for which the IC50 was 25 nM and the inhibition at 0.2 µM was 97%. For `CNS(=O)(=O)c1ccccc1-c1ccc2[nH]c(COc3ccc(C4CC4)cc3)nc2c1` [Cpd 165, 2-[2-(4-cyclopropyl-phenoxymethyl)-1H-benzoimidazol-5-yl]-N-methyl-benzenesulfonamide], the IC50 turned out to be 6 nM and the inhibition at 0.2 µM was 98%.
